Source: patent publication US20080131498A1, “PHARMACEUTICAL COMPOSITION, A METHOD OF PREPARING IT AND A METHOD OF TREATMENT BY USE THEREOF” (BUSULIPO AB, priority 1998, published 2008)
Where “and” joins values, the source holds several entries; their conditions need not be identical. Equal entries are not always repeated. Entries after “also recorded” stand apart in the source; their conditions may differ. Where two headings read alike, the source gives them in different places.

How the values were obtained:
[1] = test system: CFU-GM from normal CD34+ hematopoietic progenitor cells; test: Clonogenic assay of CD34+ cells, CFU-GM (Example 11); format: cell-based, human; conditions: for effect alone on colony formation of CFU-GM or erythroid colonies / effect on busulphan-induced inhibition of colony formation of CFU-GM or erythroid colonies: CD34+ cells; for effect on busulphan-induced inhibition of colony formation of CFU-GM or erythroid colonies: preincubation then busulphan 4.5 or 10 μg/ml for 4 hours
Description: (§1) Ten healthy volunteers were recruited after a medical interview. The study followed the guidelines of the local authorities and was approved by the local ethical committee. […] CD34+ cells were separated on a MACS system by positive selection using CD34+ Separation Kit according to the manufacturer's instructions. Cells were incubated in RPMI-1640 medium supplemented with 10% heat inactivated fetal bovine serum at 37° C. in a humidified 5% CO2 atmosphere. Cells used for pharmacodynamic study were incubated in busulphan of final concentrations of 1, 2.5, 5, 10, 20, 40 or 60 μg/ml for 2, 4 or 8 hours. Cells used for the GSH modulation part were treated with N-acetyl-L-cysteine (NAC) (1 mM) or L-buthionine-[S,R]-sulfoximine (BSO) (50 μM) for 16 to 18 hours, followed by busulphan in final concentrations of 4.5 or 10 μg/ml for 4 hours. After incubation, cells were washed and plated for clonogenic assay.
(§2) CD34+ cells were treated with NAC, BSO, DMSO or busulphan alone or in combinations, washed and 2000 cells were plated in 1.1 ml of MethoCult™ GF H4434 in 35 mm Petri dishes in triplicates. Colonies were scored on day 14 using an inverted microscope. Murine bone marrow was harvested on day 1, 3, 6, 9 or 12 after the last dose of the treatment. Control group and each treatment group consisted of a minimum of three animals at each time point. Mice were sacrificed under general anaesthesia. Both femurs were removed and bone marrow was flushed out under sterile conditions. Cells were counted in Türk solution and nucleated cells (0.5×10^5) were plated in 1.1 ml of MethoCult™ GF M3534 in 35 mm Petri dishes in triplicates. The plates were placed in incubator (37° C., 5% CO2 and 100% humidity). CFU-GM, equal to or more than 50 cells, were counted on the day 7 using an inverted microscope.

[2] = test system: GSH intracellular content of CD34+ cells; test: GSH assay in CD34+ cells after NAC or BSO; format: cell-based, human; conditions: preincubation 16 to 18 hours, NAC 1 mM or BSO 50 μM
Description: as §1, with “After incubation, cells were washed and plated for clonogenic assay.” left out
(§3) Intracellular concentrations of GSH were determined using the enzymatic assay according to Tietze (Tietze, F. Enzymic method for quantitative determination of nanogram amounts of total and oxidized glutathione: applications to mammalian blood and other tissues. Anal Biochem, 27: 502-522., 1969). Total cellular protein was assessed according to Lowry after dissolving the precipitate in 1M NaOH (Lowry, O. H., Rosebrough, N. J., Farr, A. L., and Randall, R. J. Protein measurement with the folin phenol reagent. J Biol Chem, 193: 265-275., 1951)

[3] = test system: GSH intracellular level of P39 cells; test: GSH assay in P39 cells after NAC or BSO; format: cell-based, human
Description: (§4) The P39 cell line was kindly provided by Prof Y. Yoshida, Center for South East Asian Studies, Kyoto University, Kyoto, Japan. Cells were cultured in RPMI-1640 medium supplemented with 10% heat inactivated fetal bovine serum (FBS), penicillin (25 IU/ml) and streptomycin (25 μg/ml) at 37° C. in a humidified 5% CO2 atmosphere. Exponentially growing cells were used in all experiments. Cells were incubated with N-acetyl-L-cysteine (1 mM) or L-buthionine-[S,R]-sulfoximine (50 μM) for 16 to 18 hours and then with busulphan in final concentrations of 10, 20 or 40 μg/ml for 4 hours. After incubation, cells were washed and re-cultured in busulphan-free medium for 72 hours.
as §3

myeloid P39 cell line = test: Proliferation, clonogenicity and apoptosis in P39 cells; format: cell-based, human; conditions: for effect on proliferation of busulphan treated P39 cells ([^3H]thymidine incorporation) / effect on the effect of busulphan on clonogenic capacity of P39 cells / effect on levels of apoptosis induced by busulphan in P39 cells: pretreatment; for effect on the effect of busulphan on clonogenic capacity of P39 cells: busulphan 10, 20 or 40 μg/ml 4 hours; for effect on levels of apoptosis induced by busulphan in P39 cells: data not shown
Description: as §4
Proliferation was assessed using the [^3H]thymidine incorporation assay. Clonogenic capacity was determined in 0.9% methylcellulose and apoptosis with morphology in May-Grünwald-Giemsa staining as described in (Hassan, Z., Hassan, M., and Hellstrom-Lindberg, E. The pharmacodynamic effect of busulfan in the P39 myeloid cell line in vitro. Leukemia, 15: 1240-1247, 2001).

CFU-GM = test: Busulphan-induced myelosuppression in mice with GSH modulators, CFU-GM assay; format: in vivo, Balb/c mice; conditions: for effect of combination on the myelosuppressive effect of busulphan: NAC 1.38 mmol/kg orally or BSO 0.93 mmol/kg ip before busulphan
Description: Balb/c mice were purchased from B&K Universal Limited, Sweden. Female mice were 6 to 12 weeks old with a weight ranging from 20 to 24 g. Local animal ethical committee approved animals housing conditions and experimental design. Animals were fed with standard pelleted food and water ad libitum. […] Treatment consisted of N-acetyl-L-cysteine (1.38±0.07 mmol/kg) orally or L-buthionine-[S,R]-sulfoximine (0.93±0.03 mmol/kg) intraperitoneally followed by liposomal busulphan (37±1.4 mg/kg) intraperitoneally. Animals were sacrificed at day 1, 3, 6, 9 or 12 after the last dose of treatment.
Liposomal busulphan was used in the in vivo study and prepared as described in example 1. Liposomal busulphan was prepared freshly before each experiment and stored in refrigerator until use.
as §2

[4] = Busulphan AUC before and after NAC in patients (Example 12); format: in vivo, human patients; conditions: for AUC: plasma
Description: Busulphan was given twice daily.
Busulphan was determined using gas chromatography with electron capture detector. Internal standard (1,5-bis(methanesulphonyloxy) pentane) was added to 0.5 ml plasma. Busulphan and internal standard were converted to 1,4-diiodobutane and 1,5-diiodopentane, respectively.

[5] = NAC therapy during conditioning prior to allogeneic SCT: liver function, VOD, course of transplantation (Example 12)
Description: Ten patients, who underwent allogeneic stem cell transplantation (SCT) were included in the study. Six patients were transplanted with stem cells from matched unrelated donors, three with stem cells from HLA (Human Leukocyte Antigen) identical sibling donors and one with cord blood. The patients were included on the basis of high risk for hepatic toxicity. […] All patients had been tested negative for viral hepatitis B and C during pre-transplantation evaluation.
The initial busulphan dose given to these patients was 4 mg/kg/day. Busulphan was given twice daily. In cases of high busulphan serum concentrations the dose was reduced during conditioning as described below. […] Nine patients were given NAC during conditioning with busulphan. Treatment with NAC was given once daily as a three-hour infusion, 100 mg per kg body weight starting six hours after the previous busulphan dose and ending three hours before the following dose. The number of NAC doses given during and after busulphan treatment among the patients is described in Table 9. […] When restarted, NAC was administered not earlier than twelve hours after the end of cyclophosphamide infusion. The treatment was continued until elevated liver transaminases were normalized or, if normal transaminases at initiation of therapy, until conditioning was completed.
Tissue typing, conditioning, GVHD prophylaxis and infectious prophylaxis were performed as generally known to the skilled person. In short, the patients were treated in reversed isolation, immunosuppression consisted of four doses of methotrexate combined with cyclosporine and antithymocyte globuline, (Thymoglobulin, Sangstadt, Lyon, France), was given to recipients of unrelated stem cells.

[6] = test system: Erythroid colonies from normal CD34+ hematopoietic progenitor cells; test: Clonogenic assay of CD34+ cells, erythroid colonies (Example 11); format: cell-based, human; conditions: bone marrow donors BM 1-5 and Mean
Description: as §1
CD34+ cells were treated with NAC, BSO, DMSO or busulphan alone or in combinations, washed and 2000 cells were plated in 1.1 ml of MethoCult™ GF H4434 in 35 mm Petri dishes in triplicates. Colonies were scored on day 14 using an inverted microscope. […] Cells were counted in Türk solution and nucleated cells (0.5×10^5) were plated in 1.1 ml of MethoCult™ GF M3534 in 35 mm Petri dishes in triplicates. […] CFU-GM, equal to or more than 50 cells, were counted on the day 7 using an inverted microscope.

[7] = Half-life of busulphan in RPMI-1640 medium (in vitro pharmacokinetics); format: physicochemical; conditions: 37° C.
[8] = 25° C.; cited from earlier work
[9] = test system: GSH in murine hepatocytes; conditions: cited from earlier work
[10] = After NAC therapy, one line per patient
[11] = After conditioning, one line per patient

Compound: CCCCS(=N)(=O)CC[C@H](N)C(=O)O (stereo partly drawn) [BSO, L-buthionine-[S,R]-sulfoximine]
- effect alone on colony formation of CFU-GM or erythroid colonies [1]: did not influence
- effect on busulphan-induced inhibition of colony formation of CFU-GM or erythroid colonies [1]: Neither did preincubation of CD34+ cells with BSO change; also recorded: no additive effect
- GSH intracellular content compared to CD34+ cells incubated in medium [2]: 50±9% and 50%
- decrease of GSH compared to cells cultured in medium ([3]; BSO 50 μM 16 to 18 hours): 80%
- decrease of clonogenic capacity of P39 cells (myeloid P39 cell line; alone, immediately at the end of incubation, full recovery after 24 hours): 50%
- combined effect with busulphan on P39 cells (myeloid P39 cell line; busulphan 10 μg/ml, immediately after the end of incubation): Additive effect
- effect on proliferation of busulphan treated P39 cells ([^3H]thymidine incorporation) (myeloid P39 cell line): did not influence the proliferation
- effect on the effect of busulphan on clonogenic capacity of P39 cells (myeloid P39 cell line): neither NAC nor BSO influenced
- effect on levels of apoptosis induced by busulphan in P39 cells (myeloid P39 cell line): did not change the levels of apoptosis
- effect alone on CFU-GM formation compared to the control group (CFU-GM): Neither NAC nor BSO influenced
- effect of combination on the myelosuppressive effect of busulphan (CFU-GM): did not change the level of myelosuppression

Compound: CC(=O)N[C@@H](CS)C(=O)O [NAC, N-acetyl-L-cysteine]
- effect alone on colony formation of CFU-GM or erythroid colonies [1]: did not influence
- effect on busulphan-induced inhibition of colony formation of CFU-GM or erythroid colonies [1]: did not affect
- GSH intracellular content compared to CD34+ cells incubated in medium [2]: 150±30%
- increase of GSH intracellular level compared to cells cultured in medium ([3]; NAC 1 mM 16 to 18 hours): 10%
- effect on proliferation of busulphan treated P39 cells ([^3H]thymidine incorporation) (myeloid P39 cell line): did not influence the proliferation
- effect on the effect of busulphan on clonogenic capacity of P39 cells (myeloid P39 cell line): neither NAC nor BSO influenced
- effect on levels of apoptosis induced by busulphan in P39 cells (myeloid P39 cell line): did not change the levels of apoptosis
- effect alone on CFU-GM formation compared to the control group (CFU-GM): Neither NAC nor BSO influenced
- effect of combination on the myelosuppressive effect of busulphan (CFU-GM): did not significantly influence
- effect on busulphan serum concentrations ([4]; human, in vivo): not affected
- ALT [5, 10]: 0.77 ukat/L and 1.19 ukat/L and 0.61 ukat/L and 0.52 ukat/L
- AST [5, 10]: 0.29 ukat/L and 0.33 ukat/L and 0.42 ukat/L and 0.49 ukat/L
- Bilirubin [5, 10]: 9 µmol/L and 19 µmol/L and 7 µmol/L and 6 µmol/L
- ALT [5, 11]: 4.11 ukat/L and 3.45 ukat/L and 0.78 ukat/L and 2.24 ukat/L
- AST [5, 11]: 1.76 ukat/L and 1.50 ukat/L and 0.40 ukat/L and 0.82 ukat/L
- Bilirubin [5, 11]: 4 µmol/L and 12 µmol/L and 11 µmol/L and 6 µmol/L
- ALT ([5]; Before NAC therapy, one line per patient, normal range <0.8): 1.51 ukat/L and 2.25 ukat/L and 0.59 ukat/L and 8.10 ukat/L
- AST ([5]; Before NAC therapy, one line per patient, normal range <0.80): 0.85 ukat/L and 0.96 ukat/L and 0.38 ukat/L and 11.2 ukat/L
- Bilirubin ([5]; Before NAC therapy, one line per patient, normal range <26): 4 µmol/L and 5 µmol/L and 8 µmol/L and 3 µmol/L
- Engraftment WBC day, ≧0.5 × 10^9/L ([5]; Day of SCT = day 0, one line per patient): 13 day (2×) and 12 day (3×) and 15 day and 24 day and 10 day and 14 day and 16 day
- First day of WBC ≦0.5 × 10^9/L ([5]; Day of SCT = day 0, one line per patient, NAC during conditioning): 1 day and −1 day (2×) and −3 day and 0 day and 4 day and 5 day and 6 day and 2 day and −2 day
- liver transferases after treatment in patients elevated at initiation ([5]; in vivo): less elevated test results after treatment
- side effects related to the NAC infusions ([5]; in vivo): no side effects related to the NAC infusions were observed
- Chimerism at 1 month post SCT ([5]; one line per patient): 100% donor
- Patient outcome ([5]; one line per patient): Died day
- Recurrence of the malignancy ([5]; one line per patient): No (9×) and 15 mo after
- neutropenia ([5]; ten patients): Neutropenia developed in all patients
- VOD or fatal liver toxicity ([5]; ten patients at high risk of VOD): None of the patients developed VOD or fatal liver toxicity
- donor origin of hematopoietic cells (CD3+, Cd19+, CD45+) in peripheral blood ([5]; three months after SCT, five patients): 100%

Compound: CS(=O)(=O)OCCCCOS(C)(=O)=O [busulphan, 1,4-bis-(methanesulphonyloxy)butan]
- I-AUC100 (AUC inhibiting colony formation by 100%) ([1]; CFU-GM, bone marrow donors BM 1-5 and Mean): 69.33 µg·h/mL and 56.01 µg·h/mL and 74.14 µg·h/mL and 69.46 µg·h/mL and 74.38 µg·h/mL
- I-AUC50 (AUC inhibiting colony formation by 50%) [6]: 31.54 µg·h/mL and 18.13 µg·h/mL and 24.68 µg·h/mL and 30.12 µg·h/mL and 26.96 µg·h/mL
- I-AUC50 (AUC inhibiting colony formation by 50%) ([6]; mean): 26.29 µg·h/mL
- myelosuppression (CFU-GM colony-formation assay) (CFU-GM; liposomal busulphan 37±1.4 mg/kg ip once a day for 4 days): stable myelosuppression on days 3 through 12
- Busulphan AUC corrected for 2 mg/kg ([4]; After NAC, one line per patient): 10385 ng·h/mL and 12350 ng·h/mL and 15230 ng·h/mL and 10043 ng·h/mL and 19445 ng·h/mL and 12828 ng·h/mL
- AUC ([4]; human, 2 mg/kg, Busulphan AUC corrected for 2 mg/kg, After NAC, one line per patient): 14800 ng·h/mL
- AUC ([4]; human, oral, 4 mg/kg/day, patients no 2, 4 and 8, in this order, before NAC, read-out: AUC after the first dose of busulphan): 20500 ng·h/mL
- AUC ([4]; human, oral, patients no 2, 4 and 8, in this order, doses reduced by 35, 15 and 30%, read-out: mean values of the AUC's during doses 4-8): 11400 ng·h/mL
- AUC after the first dose of busulphan ([4]; patients no 2, 4 and 8, in this order, before NAC): 15527 ng·h/mL and 16122 ng·h/mL
- mean values of the AUC's during doses 4-8 ([4]; patients no 2, 4 and 8, in this order, doses reduced by 35, 15 and 30%): 10551 ng·h/mL and 12122 ng·h/mL
- half-life [7]: 16 h
- k (C=C0.e^−kt) [7]: 0.043
- water solubility [8]: less than 1 microgram/ml
- GSH depletion in murine hepatocytes ([9]; in vitro): 50%
- GSH depletion in murine hepatocytes ([9]; in vivo): 60%
